Source: patent US10729130B2, “Nematicidal compositions and methods of using them” (Eden Research plc, priority 2004, dated 2020)

Key:
Type in all cases: physicochemical
[1] = Terpene stability: yellow colored oxidation product (colour of encapsulated terpene pellet); set-up: key to Colour: W = white; Y = yellow; sl = slight; int = intermediate; key to Color: White, W; Yellow, Y; Very Yellow, VY; conditions: for Color: Table 26, scored at 24 hours
Protocol: Loading reactions were set up as shown in Table 25 and left to incubate overnight. Samples were centrifuged at 14,000×g for 10 minutes and the appearance of free terpene floating on the aqueous layer and the color of the encapsulated terpenes in the pellet was scored. The highest volume of terpene absorbed by particles as evidenced by the absence of free terpene was recorded as the volume of absorbed terpene emulsion. The reactions were incubated for 1, 3, 6, 9 and 24 hours at room temperature or 37° C. After incubation samples were centrifuged at 14,000×g for 10 minutes and the appearance of free terpene floating on the aqueous layer was scored. The highest volume of terpene absorbed by the particles as evidenced by the absence of free terpene was recorded as the volume of absorbed terpene emulsion. Colour of the encapsulated pellet was scored at 24 hours. Increasing volumes of terpene emulsion were mixed with 250 mg/ml Baker's YP or 250 mg/ml SAF Mannan™ overnight at room temperature as shown in Tables 27 and 28. Samples were centrifuged at 14,000×g for 10 minutes and the appearance of free terpene floating on the aqueous layer was scored. The highest volume of terpene emulsion absorbed by Baker's YP or SAF Mannan™ as evidenced by the absence of free terpene was recorded as the volume of absorbed terpene emulsion. Colour of encapsulated terpenes in the pellet was recorded.

[2] = Maximal citral and L-carvone loading in Baker's yeast particles (free terpene score); set-up: key to Free Terpene: +: “free terpene” refers to the visible presence of terpene in the centrifuged reaction mixture; −: The absence of free terpene indicates complete absorption of the terpene by the particles; conditions: for Free Terpene: 500 μl 20 mg/ml YP, overnight room temperature
Protocol: Samples were centrifuged at 14,000×g for 10 minutes and the appearance of free terpene floating on the aqueous layer was scored. The expression “free terpene” refers to the visible presence of terpene in the centrifuged reaction mixture. The absence of free terpene indicates complete absorption of the terpene by the particles. The highest volume of terpene absorbed by the particles, as evidenced by the absence of free terpene, was recorded as the maximal volume of absorbed terpene emulsion.

[3] = Kinetics of terpene loading into various particles at room temperature or 37° C.; set-up: key: +: “free terpene” refers to the visible presence of terpene in the centrifuged reaction mixture; −: The absence of free terpene indicates complete absorption of the terpene by the particles
Protocol: 1% Tween-80 solution was prepared by sonicating 1 ml 10% Tween-80 in 10 ml water. • Baker's YP was prepared by mixing 5 g of bakers YP in 20 ml 1% Tween-80. • Nutrex™ YGP suspension was prepared by mixing 2 g Nutrex™ YGP in 20 ml 1% Tween-80. • SAF Mannan™ suspension was prepared by mixing 2 g SAF Mannan™ in 20 ml 1% Tween-80.
The reactions were incubated for 1, 3, 6, 9 and 24 hours at room temperature or 37° C. After incubation samples were centrifuged at 14,000×g for 10 minutes and the appearance of free terpene floating on the aqueous layer was scored. The highest volume of terpene absorbed by the particles as evidenced by the absence of free terpene was recorded as the volume of absorbed terpene emulsion. Colour of the encapsulated pellet was scored at 24 hours.

In the case of L-carvone, the Colour ([1]; Table 25, Baker's 250 mg/ml, overnight) is reported as “W”, the Colour ([1]; Table 25, Levacan 217 mg/ml, overnight) is reported as “W” and the Colour ([1]; Table 25, Nutrex 163 mg/ml, overnight) is reported as “W”. For the same substance, the Colour ([1]; Table 25, Nutricepts 99 mg/ml, overnight) was “W”, the Colour ([1]; Table 25, SAF Mannan 234 mg/ml, overnight) was “W” and the Colour ([1]; Table 25, WGP 121 mg/ml, overnight) was “W”. The Color ([1]; 37 ° C., Bakers 250 mg/ml) was “W”, the Color ([1]; 37 ° C., Nutrex 100 mg/ml) was “W” and the Color ([1]; 37 ° C., SAF 100 mg/ml) was “W”. The Color ([1]; Rt, Bakers 250 mg/ml) was “W”, the Color ([1]; Rt, Nutrex 100 mg/ml) was “W” and the Color ([1]; Rt, SAF 100 mg/ml) was “W”. For the same substance, the Colour ([1]; Table 27, Baker's YP, emulsion 7 μl as printed) was “W”, the Colour ([1]; Table 27, Baker's YP, emulsion 15 μl) was “W” and the Colour ([1]; Table 27, Baker's YP, emulsion 37.5 μl) was “W”. The Colour ([1]; Table 27, Baker's YP, emulsion 112.5 μl) was “W”, the Colour ([1]; Table 27, Baker's YP, emulsion 150 μl) was “W” and the Colour ([1]; Table 27, Baker's YP, emulsion 225 μl) was “W”. For the same substance, the Colour ([1]; Table 27, Baker's YP, emulsion 450 μl) was “W”, the Colour ([1]; colour of encapsulated terpene in pellet, SAF Mannan 500 μl, terpene emulsion vol 15) was “W” and the Colour ([1]; colour of encapsulated terpene in pellet, SAF Mannan 500 μl, terpene emulsion vol 37.5) was “W”. For the same substance, the Colour ([1]; colour of encapsulated terpene in pellet, SAF Mannan 500 μl, terpene emulsion vol 75) was “W”, the Colour ([1]; colour of encapsulated terpene in pellet, SAF Mannan 500 μl, terpene emulsion vol 112.5) was “W” and the Colour ([1]; colour of encapsulated terpene in pellet, SAF Mannan 500 μl, terpene emulsion vol 150) was “W”. The Colour ([1]; colour of encapsulated terpene in pellet, SAF Mannan 500 μl, terpene emulsion vol 225) was “W”, the Colour ([1]; colour of encapsulated terpene in pellet, SAF Mannan 500 μl, terpene emulsion vol 450) was “W” and the “terpene emulsion absorbed and encapsulated per 10 mg of YP” value ([2]; Baker's YP 20 mg/ml) was “at least 16.5 μl”. The “Free Terpene” value ([2]; emulsion 0.5 μl, 10% Tween-80 500 μl) was “−”, the “Free Terpene” value ([2]; emulsion 1.65 μl, 10% Tween-80 500 μl) was “−” and the “Free Terpene” value ([2]; emulsion 5 μl, 10% Tween-80 495 μl) was “−”. The “Free Terpene” value ([2]; emulsion 16.5 μl, 10% Tween-80 483.5 μl) was “−”, the “Free Terpene” value ([2]; emulsion 50 μl, 10% Tween-80 450 μl) was “+” and the “Free Terpene” value ([2]; emulsion 165 μl, 10% Tween-80 335 μl) was “+”. The “Free Terpene” value ([2]; emulsion 500 μl, no Tween-80) was “+”, the “Free Terpene (hr)” value ([3]; 37 ° C., Bakers 250 mg/ml, emulsion 788 μl L-carvone or 525 μl Citral, 1 hr) was “+” and the “Free Terpene (hr)” value ([3]; 37 ° C., Bakers 250 mg/ml, emulsion 788 μl L-carvone or 525 μl Citral, 3 hr) was “−”. For the same substance, the “Free Terpene (hr)” value ([3]; 37 ° C., Bakers 250 mg/ml, emulsion 788 μl L-carvone or 525 μl Citral, 6 hr) was “−”, the “Free Terpene (hr)” value ([3]; 37 ° C., Bakers 250 mg/ml, emulsion 788 μl L-carvone or 525 μl Citral, 9 hr) was “−” and the “Free Terpene (hr)” value ([3]; 37 ° C., Bakers 250 mg/ml, emulsion 788 μl L-carvone or 525 μl Citral, 24 hr) was “−”. The “Free Terpene (hr)” value ([3]; 37 ° C., Nutrex 100 mg/ml, emulsion 1050 μl L-carvone or 788 μl Citral, 1 hr) was “+”, the “Free Terpene (hr)” value ([3]; 37 ° C., Nutrex 100 mg/ml, emulsion 1050 μl L-carvone or 788 μl Citral, 3 hr) was “−” and the “Free Terpene (hr)” value ([3]; 37 ° C., Nutrex 100 mg/ml, emulsion 1050 μl L-carvone or 788 μl Citral, 6 hr) was “−”. For the same substance, the “Free Terpene (hr)” value ([3]; 37 ° C., Nutrex 100 mg/ml, emulsion 1050 μl L-carvone or 788 μl Citral, 9 hr) was “−”, the “Free Terpene (hr)” value ([3]; 37 ° C., Nutrex 100 mg/ml, emulsion 1050 μl L-carvone or 788 μl Citral, 24 hr) was “−” and the “Free Terpene (hr)” value ([3]; 37 ° C., SAF 100 mg/ml, emulsion 1050 μl L-carvone or 788 μl Citral, 1 hr) was “<+”. For the same substance, the “Free Terpene (hr)” value ([3]; 37 ° C., SAF 100 mg/ml, emulsion 1050 μl L-carvone or 788 μl Citral, 3 hr) was “−”, the “Free Terpene (hr)” value ([3]; 37 ° C., SAF 100 mg/ml, emulsion 1050 μl L-carvone or 788 μl Citral, 6 hr) was “−” and the “Free Terpene (hr)” value ([3]; 37 ° C., SAF 100 mg/ml, emulsion 1050 μl L-carvone or 788 μl Citral, 9 hr) was “−”. For the same substance, the “Free Terpene (hr)” value ([3]; 37 ° C., SAF 100 mg/ml, emulsion 1050 μl L-carvone or 788 μl Citral, 24 hr) was “−”, the “Free Terpene (hr)” value ([3]; Rt, Bakers 250 mg/ml, emulsion 788 μl L-carvone or 525 μl Citral, 1 hr) was “+” and the “Free Terpene (hr)” value ([3]; Rt, Bakers 250 mg/ml, emulsion 788 μl L-carvone or 525 μl Citral, 3 hr) was “−”. The “Free Terpene (hr)” value ([3]; Rt, Bakers 250 mg/ml, emulsion 788 μl L-carvone or 525 μl Citral, 6 hr) was “−”, the “Free Terpene (hr)” value ([3]; Rt, Bakers 250 mg/ml, emulsion 788 μl L-carvone or 525 μl Citral, 9 hr) was “−” and the “Free Terpene (hr)” value ([3]; Rt, Bakers 250 mg/ml, emulsion 788 μl L-carvone or 525 μl Citral, 24 hr) was “−”. The “Free Terpene (hr)” value ([3]; Rt, Nutrex 100 mg/ml, emulsion 1050 μl L-carvone or 788 μl Citral, 1 hr) was “+”, the “Free Terpene (hr)” value ([3]; Rt, Nutrex 100 mg/ml, emulsion 1050 μl L-carvone or 788 μl Citral, 3 hr) was “−” and the “Free Terpene (hr)” value ([3]; Rt, Nutrex 100 mg/ml, emulsion 1050 μl L-carvone or 788 μl Citral, 6 hr) was “−”. The “Free Terpene (hr)” value ([3]; Rt, Nutrex 100 mg/ml, emulsion 1050 μl L-carvone or 788 μl Citral, 9 hr) was “−”, the “Free Terpene (hr)” value ([3]; Rt, Nutrex 100 mg/ml, emulsion 1050 μl L-carvone or 788 μl Citral, 24 hr) was “−” and the “Free Terpene (hr)” value ([3]; Rt, SAF 100 mg/ml, emulsion 1050 μl L-carvone or 788 μl Citral, 1 hr) was “<+”. The “Free Terpene (hr)” value ([3]; Rt, SAF 100 mg/ml, emulsion 1050 μl L-carvone or 788 μl Citral, 3 hr) was “−”, the “Free Terpene (hr)” value ([3]; Rt, SAF 100 mg/ml, emulsion 1050 μl L-carvone or 788 μl Citral, 6 hr) was “−” and the “Free Terpene (hr)” value ([3]; Rt, SAF 100 mg/ml, emulsion 1050 μl L-carvone or 788 μl Citral, 9 hr) was “−”. The “Free Terpene (hr)” value ([3]; Rt, SAF 100 mg/ml, emulsion 1050 μl L-carvone or 788 μl Citral, 24 hr) was “−”.
